Settings: 101.33 kPa, Liquid; for speed of sound: Pulse-echo method; for mass density: Vibrating tube method

CCC(=O)[O-].C[NH2+]CCO [2-hydroxy-N-methylethanaminium propionate]
Settings | mass density [kg/m3] | speed of sound [m/s] | viscosity [mPa·s]
278.15 K | 1084.28 | 1752.4 | –
278.4 K | 1084.12 | 1751.6 | –
278.65 K | 1083.96 | 1750.7 | –
278.9 K | 1083.8 | 1749.8 | –
279.15 K | 1083.63 | 1749 | –
279.4 K | 1083.47 | 1748.1 | –
279.65 K | 1083.31 | 1747.3 | –
279.9 K | 1083.15 | 1746.5 | –
280.15 K | 1082.98 | 1745.6 | –
280.4 K | 1082.82 | 1744.8 | –
280.65 K | 1082.66 | 1744 | –
280.9 K | 1082.5 | 1743.1 | –
281.15 K | 1082.34 | 1742.3 | –
281.4 K | 1082.18 | 1741.5 | –
281.65 K | 1082.02 | 1740.7 | –
281.9 K | 1081.86 | 1739.8 | –
282.15 K | 1081.69 | 1739 | –
282.4 K | 1081.53 | 1738.2 | –
282.65 K | 1081.37 | 1737.4 | –
282.9 K | 1081.21 | 1736.6 | –
283.15 K | 1081.05 | 1735.8 | –
283.4 K | 1080.88 | 1735 | –
283.65 K | 1080.72 | 1734.2 | –
283.9 K | 1080.56 | 1733.4 | –
284.15 K | 1080.39 | 1732.6 | –
284.4 K | 1080.23 | 1731.8 | –
284.65 K | 1080.07 | 1731 | –
284.9 K | 1079.91 | 1730.2 | –
285.15 K | 1079.75 | 1729.4 | –
285.4 K | 1079.59 | 1728.5 | –
285.65 K | 1079.42 | 1727.8 | –
285.9 K | 1079.25 | 1727 | –
286.15 K | 1079.09 | 1726.2 | –
286.4 K | 1078.93 | 1725.5 | –
286.65 K | 1078.76 | 1724.7 | –
286.9 K | 1078.6 | 1723.9 | –
287.15 K | 1078.44 | 1723.1 | –
287.4 K | 1078.28 | 1722.4 | –
287.65 K | 1078.11 | 1721.6 | –
287.9 K | 1077.95 | 1720.8 | –
288.15 K | 1077.79 | 1720 | 432.13
288.4 K | 1077.62 | 1719.3 | –
288.65 K | 1077.46 | 1718.5 | –
288.9 K | 1077.3 | 1717.7 | –
289.15 K | 1077.13 | 1717 | –
289.4 K | 1076.97 | 1716.2 | –
289.65 K | 1076.81 | 1715.4 | –
289.9 K | 1076.64 | 1714.7 | –
290.15 K | 1076.48 | 1713.9 | –
290.4 K | 1076.31 | 1713.2 | –
290.65 K | 1076.15 | 1712.4 | 359.06
290.9 K | 1075.98 | 1711.6 | –
291.15 K | 1075.82 | 1710.9 | –
291.4 K | 1075.65 | 1710.1 | –
291.65 K | 1075.49 | 1709.3 | –
291.9 K | 1075.33 | 1708.6 | –
292.15 K | 1075.16 | 1707.8 | –
292.4 K | 1075 | 1707.1 | –
292.65 K | 1074.83 | 1706.4 | –
292.9 K | 1074.67 | 1705.6 | –
293.15 K | 1074.5 | 1704.9 | 301.63
293.4 K | 1074.34 | 1704.1 | –
293.65 K | 1074.17 | 1703.4 | –
293.9 K | 1074.01 | 1702.6 | –
294.15 K | 1073.84 | 1701.9 | –
294.4 K | 1073.68 | 1701.1 | –
294.65 K | 1073.51 | 1700.4 | –
294.9 K | 1073.35 | 1699.7 | –
295.15 K | 1073.18 | 1698.9 | –
295.4 K | 1073.02 | 1698.2 | –
295.65 K | 1072.86 | 1697.4 | 256.14
295.9 K | 1072.7 | 1696.7 | –
296.15 K | 1072.54 | 1695.9 | –
296.4 K | 1072.38 | 1695.2 | –
296.65 K | 1072.22 | 1694.5 | –
296.9 K | 1072.07 | 1693.7 | –
297.15 K | 1071.9 | 1693 | –
297.4 K | 1071.74 | 1692.2 | –
297.65 K | 1071.59 | 1691.5 | –
297.9 K | 1071.43 | 1690.7 | –
298.15 K | 1071.27 | 1690 | 215.06
298.4 K | 1071.11 | 1689.3 | –
298.65 K | 1070.95 | 1688.5 | –
298.9 K | 1070.79 | 1687.8 | –
299.15 K | 1070.63 | 1687 | –
299.4 K | 1070.47 | 1686.3 | –
299.65 K | 1070.31 | 1685.5 | –
299.9 K | 1070.15 | 1684.8 | –
300.15 K | 1069.99 | 1684.1 | –
300.4 K | 1069.83 | 1683.3 | –
300.65 K | 1069.67 | 1682.6 | 182.88
300.9 K | 1069.51 | 1681.8 | –
301.15 K | 1069.35 | 1681.1 | –
301.4 K | 1069.18 | 1680.3 | –
301.65 K | 1069.02 | 1679.6 | –
301.9 K | 1068.86 | 1678.9 | –
302.15 K | 1068.69 | 1678.1 | –
302.4 K | 1068.53 | 1677.4 | –
302.65 K | 1068.38 | 1676.7 | –
302.9 K | 1068.21 | 1675.9 | –
303.15 K | 1068.05 | 1675.2 | 158.24
303.4 K | 1067.89 | 1674.5 | –
303.65 K | 1067.73 | 1673.7 | –
303.9 K | 1067.57 | 1673 | –
304.15 K | 1067.4 | 1672.3 | –
304.4 K | 1067.24 | 1671.5 | –
304.65 K | 1067.08 | 1670.8 | –
304.91 K | 1066.92 | 1670.1 | –
305.15 K | 1066.76 | 1669.3 | 140.88
305.4 K | 1066.59 | 1668.6 | –
305.65 K | 1066.42 | 1667.9 | –
305.9 K | 1066.27 | 1667.1 | –
306.15 K | 1066.1 | 1666.4 | –
306.4 K | 1065.94 | 1665.7 | –
306.65 K | 1065.77 | 1664.9 | –
306.9 K | 1065.61 | 1664.2 | –
307.15 K | 1065.45 | 1663.5 | –
307.4 K | 1065.28 | 1662.7 | –
307.65 K | 1065.12 | 1662 | –
307.9 K | 1064.95 | 1661.2 | –

Reference: the NIST ThermoML archive (doi:10.1021/je900550v)
